Earlier results on 1 substance are cited in US4039519A, “Broad spectrum antibiotics and method” (Chimie & Biologie, priority 1975, dated 1977).

For the data set the following is noted: oral administration; cited from earlier work.

For the substance colistine, the “passage of the gastro-intestinal barrier (known)” value is recorded as “cannot pass the gastro-intestinal barrier”.
